± gives the expanded uncertainty stated by the source.
Columns and labels:
[1] = molar heat capacity at constant pressure; conditions: Liquid, Flow calorimetry
[2] = Liquid; for mass density: Vibrating tube method; for viscosity: 101 kPa, Concentric cylinders viscometry

C1CCCCC1 [cyclohexane]
Conditions | mass density, [2] [kg/m3] | molar heat capacity at constant pressure, [1] [J/K/mol]
293.15 K, 100 kPa | 778.4 ± 0.7 | 154.7 ± 1.6
293.15 K, 1000 kPa | 779.1 ± 0.7 | –
293.15 K, 2000 kPa | 779.9 ± 0.7 | –
293.15 K, 5000 kPa | 782.4 ± 0.7 | 153.8 ± 1.6
293.15 K, 10000 kPa | 786.3 ± 0.7 | 152.5 ± 1.5
293.15 K, 15000 kPa | 789.9 ± 0.7 | 150.5 ± 1.5
293.15 K, 20000 kPa | 793.4 ± 0.7 | 149.7 ± 1.5
293.15 K, 25000 kPa | – | 147.7 ± 1.5
303.15 K, 100 kPa | 769 ± 0.7 | –
303.15 K, 1000 kPa | 769.8 ± 0.7 | –
303.15 K, 2000 kPa | 770.7 ± 0.7 | –
303.15 K, 5000 kPa | 773.3 ± 0.7 | –
303.15 K, 10000 kPa | 777.5 ± 0.7 | –
303.15 K, 15000 kPa | 781.3 ± 0.7 | –
303.15 K, 20000 kPa | 785.1 ± 0.8 | –
303.15 K, 30000 kPa | 792.1 ± 0.8 | –
303.15 K, 40000 kPa | 798.5 ± 0.8 | –
313.15 K, 100 kPa | 759.7 ± 0.7 | –
313.15 K, 1000 kPa | 760.3 ± 0.7 | –
313.15 K, 2000 kPa | 761.2 ± 0.7 | –
313.15 K, 5000 kPa | 764 ± 0.7 | –
313.15 K, 10000 kPa | 768.4 ± 0.7 | –
313.15 K, 15000 kPa | 772.6 ± 0.7 | –
313.15 K, 20000 kPa | 776.6 ± 0.8 | –
313.15 K, 25000 kPa | – | 154.6 ± 1.6
313.15 K, 30000 kPa | 784.1 ± 0.8 | –
313.15 K, 40000 kPa | 790.9 ± 0.8 | –
323.15 K, 100 kPa | 750.1 ± 0.7 | –
323.15 K, 1000 kPa | 750.8 ± 0.7 | –
323.15 K, 2000 kPa | 751.8 ± 0.7 | –
323.15 K, 5000 kPa | 754.8 ± 0.7 | –
323.15 K, 10000 kPa | 759.5 ± 0.7 | –
323.15 K, 15000 kPa | 763.9 ± 0.7 | –
323.15 K, 20000 kPa | 768.2 ± 0.8 | –
323.15 K, 30000 kPa | 776.1 ± 0.8 | –
323.15 K, 40000 kPa | 783.2 ± 0.8 | –
333.15 K, 100 kPa | 740.3 ± 0.7 | –
333.15 K, 1000 kPa | 741.1 ± 0.7 | –
333.15 K, 2000 kPa | 742.2 ± 0.7 | –
333.15 K, 5000 kPa | 745.5 ± 0.7 | –
333.15 K, 10000 kPa | 750.5 ± 0.7 | –
333.15 K, 15000 kPa | 755.3 ± 0.7 | –
333.15 K, 20000 kPa | 759.7 ± 0.8 | –
333.15 K, 30000 kPa | 768.1 ± 0.8 | –
333.15 K, 40000 kPa | 775.6 ± 0.8 | –

[2]
Conditions | viscosity [mPa·s]
293.15 K | 0.98 ± 0.021
303.15 K | 0.824 ± 0.018
313.15 K | 0.701 ± 0.015
323.15 K | 0.593 ± 0.013
333.15 K | 0.522 ± 0.012
